Data reported in US11926645B2, “Compounds and methods for treatment of viral infections” (priority 2020, dated 2024).
Where two headings read alike, the source gives them in different places.

Key:
SARS-CoV-2 (WA1) = assay type: in vivo, AGM
[1] = system: SARS-CoV-2 hCoV-19/Japan/TY7-503/2021 (BZ/2021); assay type: in vivo
[2] = male, Sprague-Dawley, rat, in vivo, po, 8 mg/kg
in vitro [3] = assay type: in vitro ADME; conditions: s9, pH 7.4
Method: Duplicate aliquots of test compound or positive control substrate (GS-7340) were added to S9 stock diluted with 100 mM potassium phosphate buffer, pH 7.4, to obtain a protein concentration of 2.4 mg/mL. The S9 metabolic reactions were initiated by the addition of the substrates to the S9 reaction mixture to a final concentration of 2 μM. At 2, 12, 25, 45, 65 and 90 min, 25 μL aliquots of the reaction mixture were transferred to plates containing 225 μl of IS/Q solution. After quenching, the plates were centrifuged at 3000×g for 30 minutes, and 150 μl, aliquots of each supernatant were diluted with 150 μl, water. Aliquots (10 μL) of the diluted supernatant were analyzed on a Thermo Q-Exactive mass spectrometer as described below.
Quantification of test compounds and controls was performed by analyte/internal standard peak area ratio (PAR) values measured on a Thermo Q-Exactive mass spectrometer coupled to a Dionex UltiMate 3000 HPLC with a Leap Technologies HTC PAL autosampler. The column used was a Thermo Hypersil GOLD (1.9 μm particle size, 2.1×50 mm). Mobile phase A consisted of 0.1% (v/v) formic acid in water. Mobile phase B consisted of 0.1% (v/v) formic acid in acetonitrile. Elution of analytes was achieved by a series of linear gradients of acetonitrile in water containing 0.1% (v/v) formic acid. The mass spectrometer was calibrated on a weekly basis and mass tolerance of 5 ppm was used.

CES1 = molecular target: T1, CES1 (Homo sapiens, UniProt P23141); experiment: CES1/2 stability, CES1; assay type: in vitro ADME; conditions: CES1 Supersome preparation; Supersome preparations, CES 1.5 mg/ml, 2 μM substrate, pH 7.4, 37° C.; read-out: CES1 T1/2
T1 construct: purchased
T1 sequence (P23141 18-567): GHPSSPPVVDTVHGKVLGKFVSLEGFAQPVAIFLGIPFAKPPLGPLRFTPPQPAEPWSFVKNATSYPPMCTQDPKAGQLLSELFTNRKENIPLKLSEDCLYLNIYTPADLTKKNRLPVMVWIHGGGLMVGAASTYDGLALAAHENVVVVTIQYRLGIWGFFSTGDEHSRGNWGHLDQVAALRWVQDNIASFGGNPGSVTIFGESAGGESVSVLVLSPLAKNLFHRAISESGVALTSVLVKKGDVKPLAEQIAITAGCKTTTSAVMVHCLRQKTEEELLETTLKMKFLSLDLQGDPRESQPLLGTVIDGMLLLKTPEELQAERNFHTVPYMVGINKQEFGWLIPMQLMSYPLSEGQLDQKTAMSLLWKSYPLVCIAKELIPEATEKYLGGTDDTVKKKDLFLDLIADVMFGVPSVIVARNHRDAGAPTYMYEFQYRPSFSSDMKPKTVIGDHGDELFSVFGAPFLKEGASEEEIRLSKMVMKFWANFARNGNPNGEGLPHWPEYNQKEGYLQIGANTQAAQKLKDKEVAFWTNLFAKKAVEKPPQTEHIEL
Method: Test compounds or positive control substrates (oseltamivir for CES1 enzymes or procaine for CES2) were incubated with individual Supersome preparations (final CES concentration 1.5 mg/ml) in 0.1 M potassium phosphate buffer (pH 7.4) at 37° C. Substrates were added to a final concentration of 2 μM to initiate the reaction. The final incubation volume was 250 μL. Aliquots were removed after incubation for 0, 10, 30, 60 and 120 min. The reactions were stopped by the addition of IS/Q. Following protein precipitation and centrifugation, 150 μL of supernatant was diluted with an equal volume of water prior to LC-MS analysis. For procaine 150 μL of supernatant was dried down and reconstituted with 250 μL water. All samples were analyzed by LC-MS and the PAR values were used for quantification.

RSV strain A2 = experiment: RSV antiviral assay (Hep2), EC50-Hep2/B1-384; assay type: cell-based; conditions: human respiratory syncytial virus, HEp-2, 96 h; Hep2 cells, 4 days, Cell-Titer Glo
in vitro [4] = assay type: cell-based; conditions: human
Method: The cytotoxicity of compounds was determined in A549-hACE2 cells in the following manner. Compounds (200 nL) were spotted onto 384-well Grenier plates prior to seeding 5000 A549-hACE2 cells/well in a volume of 40 μL culture medium. The plates were incubated at 37° C. for 48 hours with 5% CO2. On day 2, 40 μL of CellTiter-Glo (Promega) was added and mixed 5 times.

[5] = system: RSV-Fluc (Respiratory Syncytial virus strain A2 containing the firefly luciferase reporter); experiment: microbe, parasite or virus in culture; assay type: cell-based; conditions: human respiratory syncytial virus, 72 h, NHBE cells, three days
in vitro [6] = conditions: hamster
SARS-CoV-2 CA/2020 = experiment: microbe, parasite or virus in culture; assay type: cell-based; conditions: Severe acute respiratory syndrome coronavirus 2, Vero C1008
Plasma stability = conditions: human
[7] = system: SARS-CoV-2 SA/2020 B.1.351; experiment: microbe, parasite or virus in culture; assay type: cell-based; conditions: Severe acute respiratory syndrome coronavirus 2, Vero C1008

Compound: CC(C)C(=O)OC[C@H]1O[C@@](C#N)(c2ccc3c(N)ncnn23)[C@H](OC(=O)C(C)C)[C@@H]1OC(=O)C(C)C [Compound 1, (2R,3R,4R,5R)-2-(4-aminopyrrolo[2,1-f][1,2,4]triazin-7-yl)-2-cyano-5-((isobutyryloxy)methyl)tetrahydrofuran-3,4-diyl bis(2-methylpropanoate)]
- Infectious SARS-CoV-2 titers versus vehicle (SARS-CoV-2 (WA1); AGMs, PO 60 or 120 mg/kg QD, days 2-6): trended lower than the vehicle group
- Viral RNA loads in lower lung tissue versus vehicle (SARS-CoV-2 (WA1); AGMs, PO 60 or 120 mg/kg QD, terminal day 6): trended lower
- mean SARS-CoV-2 gRNA in BALF versus vehicle (SARS-CoV-2 (WA1); in vivo, po): significantly reduced
- SARS-CoV-2 gRNA in BALF versus vehicle (SARS-CoV-2 (WA1); in vivo, po, 60 mg/kg): significantly lower than vehicle animals
- Infectious viral particles in nasal turbinates of contact animals ([1]; […], 5.5 days after initiation of co-housing): absent
- Shedding of infectious particles or viral RNA by contacts of treated source ferrets ([1]; […], source animals oral 10 mg/kg b.i.d.): None of the contacts of treated source ferrets shed infectious particles or viral RNA at any time
- Viral RNA in nasal turbinates of the contact animals ([1]; in vivo): < 10^5 copies/g nasal turbinate
- Lowering of viral RNA copies in nasal lavages and turbinates ([1]; in vivo, po, 10 mg/kg): over three orders of magnitude
- Shed virus burden (nasal lavage) ([1]; in vivo, po, 10 mg/kg): undetectable
- Tissue titers (nasal turbinates) ([1]; in vivo, po, 10 mg/kg): undetectable
- Cmax [2]: 5.83 µM
- half-life at 2 μM (in vitro [3]): 2 min
- half-life at 2 μM (CES1): < 1 min
- EC50 (RSV strain A2): 261 nM
- CC50 at 48 h (in vitro [4]): > 50000 nM
- CC50 (in vitro [4]; host cells A549-ACE2, read-out: CC50, A549-ACE2): > 50000 nM
- EC50 [5]: 389 nM
- CC50 (in vitro [6]): > 100000 nM
- EC50 (SARS-CoV-2 CA/2020): 210 nM
- half-life at 2 μM (Plasma stability): 5.5 min
- EC50 [7]: 110 nM
